Measured values: patent US7553821B2, “Methods for selectively modulating survivin apoptosis pathways” (Yale University, priority 2000, dated 2009)

Tested on: YUSAC-2 melanoma cells
Assay: Apoptosis in Tet-regulated YUSAC-2 transfectants (DNA content, TUNEL, caspase-9 Western blot)
Assay type: cell-based, human
Conditions: for G2/M and apoptotic (sub-G1) DNA content after transgene induction: stably transfected YUSAC-2 lines, Tet withdrawn (transgene expressed)
Description: Three YUSAC-2 melanoma cell lines stably transfected with survivin(T34A) in pTet splice were analyzed for DNA content by propidium iodide staining and flow cytometry in the presence (Tet+) or absence (Tet−) of Tet. The percentages of cells with sub-G1 (apoptotic) DNA content after a 3-d culture at 37° C. are indicated.
The experimental conditions are the same as in A, except that a subclone of YUSAC-2 transfectants, F5.C4 was analyzed in the presence (Tet+) or in the absence (Tet−) of Tet for internucleosomal DNA fragmentation by end-labeling with terminal deoxynucleotidyl transferase (TdT) and a peroxidase-conjugated anti-digoxigenin antibody.
Tet+ and Tet− F5.C4 cells characterized as described in FIG. 4, were harvested at the indicated time intervals after thymidine release and immunoblotted with an antibody to caspase-9. TNF+CHX, extract of HeLa cells treated with 10 ng/ml TNFα plus 10 μg/ml cycloheximide. Arrows, position of ˜46 kDa proform caspase-9, and ˜35 kDa and ˜37 kDa active caspase-9 bands.
Cells were then fixed, permeabilized and stained with propidium iodide for DNA content as described (Grossman et al., 1999). The marker indicates the sub-G1 fraction, corresponding to apoptotic cells.
Cells were fixed in 1% paraformaldehyde for 10 minutes at room temperature and then permeabilized with acetic acid and ethanol for 5 minutes at […]. Arrows indicate TUNEL-reactive (Shockett et al., 1995) cells with apoptotic morphology.
Transfection experiments. For transient transfection, HeLa cells in C-6 tissue culture plates (Costar, Cambridge, Mass.) at ˜60-70% confluency, were incubated in 1 ml of serum-free OptiMEM medium (Life Technologies, Gaithersburg, Md.) for 20 min, and transfected with 2.5 μg of the various plasmid cDNAs plus 9 μl Lipofectamine (Life Technologies). After a 5 h incubation at 37° C., the mixture was aspirated and substituted with complete growth medium for 48-72 h. To generate stable YUSAC-2 transfectants, a survivin(T34A) cDNA was inserted into the HindIII-SpeI sites of the pTet-splice vector (Dr. D. Schatz, Yale University School of Medicine), downstream of the regulatory sequences of the Tet-resistance operon (TetO). YUSAC-2 cells were transfected with 0.8 μg pTet-T34A, 0.8 μg of the transactivation/selection plasmid ptTA-Neo and 5 μl Lipofectamine in 1 ml of OptiMem. Forty-eight h after transfection, cells were re-plated at low density in 15×150 mm plates in growth medium containing 1.5 mg/ml Geneticin (G418, Life Technologies), 2 mM sodium hydroxide and 0.5 μg/ml Tet (Sigma, St. Louis, Mo.) (selection medium). […] Gated GFP-expressing cells were analyzed for DNA content by flow cytometry on a FACSort (Becton Dickinson, San Jose, Calif.) using a Cell Quest software. […]

**Q.** With “survivin(T34A): dominant-negative, non-phosphorylatable survivin mutant with Thr34→Ala substitution, expressed from transfected cDNA (also HA- or GFP-tagged)” as the substance, how does the “internucleosomal DNA fragmentation by TUNEL” value (F5.C4 cells, Tet-deprived) read?
**A.** stained intensely for internucleosomal DNA fragmentation by TUNEL

**Q.** What about the “caspase-9 processing by Western blotting” value (cell cycle synchronized Tet− F5.C4 cells after thymidine release) of the same substance?
**A.** time-dependent cleavage of 46 kDa proform caspase-9 and generation of ˜35 kDa and ˜37 kDa active caspase-9 bands

**Q.** And the “G2/M and apoptotic (sub-G1) DNA content after transgene induction” value?
**A.** nearly complete loss of mitotic (G2/M) cells, and appearance of a prominent population with apoptotic (sub-G1) DNA content

**Q.** And the “G2/M and apoptotic (sub-G1) DNA content after transgene induction” value (listed as Thr^34→Ala mutant)?
**A.** progressive time-dependent loss of mitotic (G2/M) cells and coincident accumulation of apoptotic cells
